Legend:
Assay in all cases: Test of herbicidal activities (greenhouse pot method)
Format in all cases: in vivo
Amaranthus retroflexus = conditions: for Herbicidal activity Amaranthus retroflexus (inhibition level): single dose 300 g ai./h, treated before/after germination, 15 days later, greenhouse pot
Summary of the method: (§1)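 Greenhouse pot test on weeds grown in mixed garden/mountain/humus soil at 15-30° C; pre- and post-emergence spray at a single dose of 300 g ai./h via automatic spraying tower (0.2 MPa). Inhibition scored after 15 days into five levels A (90-100%) to E (<50%); triplicate with blank control.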

Brassica juncea = conditions: for Herbicidal activity Brassica juncea (inhibition level): single dose 300 g ai./h, treated before/after germination, 15 days later, greenhouse pot
Summary of the method: as §1

Chenopodium album = conditions: for Herbicidal activity Chenopodium album (inhibition level): single dose 300 g ai./h, treated before/after germination, 15 days later, greenhouse pot
Summary of the method: as §1

Digiatria sanguinalis = conditions: for Herbicidal activity Digiatria sanguinalis (inhibition level): single dose 300 g ai./h, treated before/after germination, 15 days later, greenhouse pot
Summary of the method: as §1

Echinochloa crusgalli = conditions: for Herbicidal activity Echinochloa crusgalli (inhibition level): single dose 300 g ai./h, treated before/after germination, 15 days later, greenhouse pot
Summary of the method: as §1

Setaria viridis = conditions: for Herbicidal activity Setaria viridis (inhibition level): single dose 300 g ai./h, treated before/after germination, 15 days later, greenhouse pot
Summary of the method: as §1

| Structure (SMILES) | Herbicidal activity Amaranthus retroflexus (inhibition level) (Amaranthus retroflexus) | Herbicidal activity Brassica juncea (inhibition level) (Brassica juncea) | Herbicidal activity Chenopodium album (inhibition level) (Chenopodium album) | Herbicidal activity Digiatria sanguinalis (inhibition level) (Digiatria sanguinalis) | Herbicidal activity Echinochloa crusgalli (inhibition level) (Echinochloa crusgalli) | Herbicidal activity Setaria viridis (inhibition level) (Setaria viridis) | inhibition at 300 g/ha (Amaranthus retroflexus; Amaranthus retroflexus, 360 h, read-out: Herbicidal activity Amaranthus retroflexus (inhibition level)) [%] | inhibition at 300 g/ha (Brassica juncea; Brassica juncea, 360 h, read-out: Herbicidal activity Brassica juncea (inhibition level)) [%] | inhibition at 300 g/ha (Chenopodium album; Chenopodium album, 360 h, read-out: Herbicidal activity Chenopodium album (inhibition level)) [%] | inhibition at 300 g/ha (Digiatria sanguinalis; 360 h, read-out: Herbicidal activity Digiatria sanguinalis (inhibition level)) [%] | inhibition at 300 g/ha (Echinochloa crusgalli; Echinochloa crus-galli, 360 h, read-out: Herbicidal activity Echinochloa crusgalli (inhibition level)) [%] | inhibition at 300 g/ha (Setaria viridis; Setaria viridis, 360 h, read-out: Herbicidal activity Setaria viridis (inhibition level)) [%] |
| --- | --- | --- | --- | --- | --- | --- | --- | --- | --- | --- | --- | --- |
| COCCSc1nc2cc(-n3nc(C)n(C(F)F)c3=O)c(Cl)cc2s1 [Compound 76] | A (90 ≦ A ≦ 100%) | C (60 ≦ C < 80%) | C (60 ≦ C < 80%) | A (90 ≦ A ≦ 100%) | A (90 ≦ A ≦ 100%) | B (80 ≦ B < 90%) |  |  |  |  |  |  |
| CCOCCSc1nc2cc(-n3nc(C)n(C(F)F)c3=O)c(Cl)cc2s1 [Compound 78] | A (90 ≦ A ≦ 100%) | D (50 ≦ D < 60%) | B (80 ≦ B < 90%) | A (90 ≦ A ≦ 100%) | C (60 ≦ C < 80%) | A (90 ≦ A ≦ 100%) |  |  |  |  |  |  |
| CSc1nc2cc(-n3nc(C)n(C(F)F)c3=O)c(Br)cc2s1 [Compound 79] | B (80 ≦ B < 90%) | B (80 ≦ B < 90%) | C (60 ≦ C < 80%) | A (90 ≦ A ≦ 100%) | B (80 ≦ B < 90%) | B (80 ≦ B < 90%) |  |  |  |  |  |  |
| CCSc1nc2cc(-n3nc(C)n(C(F)F)c3=O)c(Br)cc2s1 [Compound 80] | A (90 ≦ A ≦ 100%) | A (90 ≦ A ≦ 100%) | E (E < 50%) | B (80 ≦ B < 90%) | A (90 ≦ A ≦ 100%) | A (90 ≦ A ≦ 100%) |  |  |  |  |  |  |
| CCCSc1nc2cc(-n3nc(C)n(C(F)F)c3=O)c(Br)cc2s1 [Compound 81] | A (90 ≦ A ≦ 100%) | A (90 ≦ A ≦ 100%) | B (80 ≦ B < 90%) | D (50 ≦ D < 60%) | B (80 ≦ B < 90%) | B (80 ≦ B < 90%) |  |  |  |  |  |  |
| CCOC(=O)CSc1nc2cc(-n3nc(C)n(C(F)F)c3=O)c(Br)cc2s1 [Compound 82] | A (90 ≦ A ≦ 100%) | B (80 ≦ B < 90%) | C (60 ≦ C < 80%) | A (90 ≦ A ≦ 100%) | A (90 ≦ A ≦ 100%) | A (90 ≦ A ≦ 100%) |  |  |  |  |  |  |
| CCCCCCSc1nc2cc(-n3nc(C)n(C(F)F)c3=O)c(F)cc2s1 [Compound 83] | A (90 ≦ A ≦ 100%) | C (60 ≦ C < 80%) | A (90 ≦ A ≦ 100%) | D (50 ≦ D < 60%) | B (80 ≦ B < 90%) | A (90 ≦ A ≦ 100%) |  |  |  |  |  |  |
| CCSc1nc2cc(-n3nc(C)n(C(F)F)c3=O)c(F)cc2s1 [Compound 84] | B (80 ≦ B < 90%) | C (60 ≦ C < 80%) | A (90 ≦ A ≦ 100%) | A (90 ≦ A ≦ 100%) | A (90 ≦ A ≦ 100%) | B (80 ≦ B < 90%) |  |  |  |  |  |  |
| CCCCCCSc1nc2cc(-n3nc(C)n(C(F)F)c3=O)c(Cl)cc2s1 [Compound 85] | B (80 ≦ B < 90%) | B (80 ≦ B < 90%) | B (80 ≦ B < 90%) | A (90 ≦ A ≦ 100%) | B (80 ≦ B < 90%) | A (90 ≦ A ≦ 100%) |  |  |  |  |  |  |
| CCSc1nc2cc(-n3nc(C)n(C(F)F)c3=O)c(Cl)cc2s1 [Compound 86] | A (90 ≦ A ≦ 100%) | A (90 ≦ A ≦ 100%) | B (80 ≦ B < 90%) | A (90 ≦ A ≦ 100%) | A (90 ≦ A ≦ 100%) | A (90 ≦ A ≦ 100%) |  |  |  |  |  |  |
| CCOC(=O)C(C)Sc1nc2cc(-n3nc(C)n(C(F)F)c3=O)c(Br)cc2s1 (stereo not drawn) [Compound 87] | B (80 ≦ B < 90%) | A (90 ≦ A ≦ 100%) | B (80 ≦ B < 90%) | B (80 ≦ B < 90%) | B (80 ≦ B < 90%) | A (90 ≦ A ≦ 100%) |  |  |  |  |  |  |
| C=CCSc1nc2cc(-n3nc(C)n(C(F)F)c3=O)c(Br)cc2s1 [Compound 88] | A (90 ≦ A ≦ 100%) | A (90 ≦ A ≦ 100%) | B (80 ≦ B < 90%) | A (90 ≦ A ≦ 100%) | B (80 ≦ B < 90%) | D (50 ≦ D < 60%) |  |  |  |  |  |  |
| CCOC(=O)C(C)Sc1nc2cc(-n3nc(C)n(C(F)F)c3=O)c(F)cc2s1 (stereo not drawn) [Compound 89] | B (80 ≦ B < 90%) | B (80 ≦ B < 90%) | C (60 ≦ C < 80%) | A (90 ≦ A ≦ 100%) | A (90 ≦ A ≦ 100%) | A (90 ≦ A ≦ 100%) |  |  |  |  |  |  |
| CSc1nc2cc(-n3nc(C)n(C(F)F)c3=O)c(F)cc2s1 [Compound 90] | A (90 ≦ A ≦ 100%) | A (90 ≦ A ≦ 100%) | A (90 ≦ A ≦ 100%) | A (90 ≦ A ≦ 100%) | B (80 ≦ B < 90%) | A (90 ≦ A ≦ 100%) |  |  |  |  |  |  |
| CCCCSc1nc2cc(-n3nc(C)n(C(F)F)c3=O)c(F)cc2s1 [Compound 91] | A (90 ≦ A ≦ 100%) | A (90 ≦ A ≦ 100%) | C (60 ≦ C < 80%) | A (90 ≦ A ≦ 100%) | A (90 ≦ A ≦ 100%) | A (90 ≦ A ≦ 100%) |  |  |  |  |  |  |
| CCCSc1nc2cc(-n3nc(C)n(C(F)F)c3=O)c(F)cc2s1 [Compound 92] | A (90 ≦ A ≦ 100%) | A (90 ≦ A ≦ 100%) | E (E < 50%) | B (80 ≦ B < 90%) | B (80 ≦ B < 90%) | C (60 ≦ C < 80%) |  |  |  |  |  |  |
| CCOC(=O)CSc1nc2cc(-n3nc(C)n(C(F)F)c3=O)c(F)cc2s1 [Compound 93, Ethyl 1-{5-[4-difluoromethyl-3-methyl-5-oxo-4,5-dihydro-1,2,4-triazol-1-yl]-6-fluorobenzo[d]thiazol-2-ylthio}acetate] |  |  |  |  |  |  | 90 to 100 | 90 to 100 | 90 to 100 | 90 to 100 | 90 to 100 | 80 to 90 |
| C=CCSc1nc2cc(-n3nc(C)n(C(F)F)c3=O)c(F)cc2s1 [Compound 94] | B (80 ≦ B < 90%) | B (80 ≦ B < 90%) | B (80 ≦ B < 90%) | A (90 ≦ A ≦ 100%) | A (90 ≦ A ≦ 100%) | A (90 ≦ A ≦ 100%) |  |  |  |  |  |  |
| CCOC(=O)C(C)Sc1nc2cc(-n3nc(C)n(C(F)F)c3=O)c(Cl)cc2s1 (stereo not drawn) [Compound 95] | A (90 ≦ A ≦ 100%) | D (50 ≦ D < 60%) | B (80 ≦ B < 90%) | A (90 ≦ A ≦ 100%) | A (90 ≦ A ≦ 100%) | A (90 ≦ A ≦ 100%) |  |  |  |  |  |  |
| CSc1nc2cc(-n3nc(C)n(C(F)F)c3=O)c(Cl)cc2s1 [Compound 96] | B (80 ≦ B < 90%) | B (80 ≦ B < 90%) | B (80 ≦ B < 90%) | B (80 ≦ B < 90%) | B (80 ≦ B < 90%) | C (60 ≦ C < 80%) |  |  |  |  |  |  |
